Tests used:
[1] = tested on: vascular permeability induced by acetic acid; experiment: Acetic acid-induced vascular permeability in mice; format: in vivo, ICR mice; conditions: Evans blue in abdominal cavity, OD 630 nm
Experimental: The inhibitory effect of the mixed herbal extract obtained in the above reference example 3 against vascular permeability was investigated.
Seven week old ICR mice were separated into each experimental group, orally administered with Trachelospermi caulis extract at a concentration of 20 mg/kg and 200 mg/kg, respectively, Pyrola japonica extract at a concentration of 20 mg/kg and 200 mg/kg, respectively, and a mixed […], respectively, after dissolving them in distilled water to a concentration of 0.1 mL/10 g b.wt., by using a sonde.
The dosage volume was determined based on the body weight measured on the day of experiment and the control group was only administered with distilled water, a preparation solvent, at a concentration of 0.1 mL/10 g b.wt. Phenylbutazone was orally administered with a dosage of 50 mg/kg b.wt. after suspending it in 0.5% methyl cellulose.
ICR male mice, which were fasted for 12 hours prior to the experiment, were administered with a test substance according to the method of Whittle (1964). […] The washing solution was collected from the abdominal cavity and then centrifuged at 2,000 rpm for 10 minutes and the supernatant was measured of its optical density at 630 nm by using a spectrophotometer to calculate the amount of Evan's blue solution flowed into the abdominal cavity. […]

NF-κB = conditions: human keratinocytes; J Dermatol Sci. 2003; 31(3):193-201; cited from earlier work
TNF-α = conditions: Int Immunopharmacol. 2004; 4(10-11):1419-29; cited from earlier work

SMILES: CCCCC1C(=O)N(c2ccccc2)N(c2ccccc2)C1=O [phenylbutazone]
- Leakage of dye ([1]; 50 mg/kg oral): 39.0 ± 3.45 μg/10 g b. wt.

SMILES: OC[C@H]1O[C@@H](Oc2ccc(O)cc2)[C@H](O)[C@@H](O)[C@@H]1O [Arbutin]
- activity of NF-κB (NF-κB): inhibit the activity of NF-κB

SMILES: COc1ccc(C[C@H]2COC(=O)[C@@H]2Cc2ccc(O[C@@H]3O[C@H](CO)[C@@H](O)[C@H](O)[C@H]3O)c(OC)c2)cc1OC [arctiin]
- TNF-α inhibitory activity (TNF-α): TNF-α inhibitory activity

SMILES: COc1cc(C[C@H]2C(=O)OC[C@@H]2Cc2ccc(OC)c(OC)c2)ccc1O [arctigenin]
- TNF-α inhibitory activity (TNF-α): TNF-α inhibitory activity

SMILES: COc1ccc2c(c1)c(CC(=O)O)c(C)n2C(=O)c1ccc(Cl)cc1 [indomethacin]
- Leakage of dye ([1]; 1 mg/kg): 36.3 ± 2.67 μg/10 g b. wt.
